# In PubChem BioAssay AID2060900 (Molecular Pharmacology Branch, DTP, NCI, 2025):
# Test system: 521955-158-R2-J5-PDC complex spheroids, viability
# Experiment: Anticancer human tumor 521955-158-R2-J5-PDC patient-derived pancreatic carcinoma cell line growth inhibition [RAS]
# Details: for IC50: curve of first compound; for viability, T/C: stronger effect = lower value
# Summary of the method: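 Multi-cell-type spheroids: tumor cells plus HUVEC endothelial cells and mesenchymal stem cells. RAS-pathway inhibitors were combined with targeted agents, each dosed in half-log steps down from clinical Cmax, or from 10 microM when Cmax was unknown.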
# [1] = second compound 0.0316 µM, first compound 0.00316 µM
# [2] = second compound 0.0316 µM, first compound 0.01 µM
# [3] = second compound 0.0316 µM, first compound 0.0316 µM
# [4] = second compound 0.0316 µM, first compound 0.1 µM
# [5] = second compound 0.0316 µM, first compound 0.316 µM
# [6] = second compound 0.0316 µM, first compound 1 µM
# [7] = second compound 0.1 µM, first compound 0.00316 µM
# [8] = second compound 0.1 µM, first compound 0.01 µM
# [9] = second compound 0.1 µM, first compound 0.0316 µM
# [10] = second compound 0.1 µM, first compound 0.1 µM
# [11] = second compound 0.1 µM, first compound 0.316 µM
# [12] = second compound 0.1 µM, first compound 1 µM
# [13] = second compound 0.316 µM, first compound 0.00316 µM
# [14] = second compound 0.316 µM, first compound 0.01 µM
# [15] = second compound 0.316 µM, first compound 0.0316 µM
# [16] = second compound 0.316 µM, first compound 0.1 µM
# [17] = second compound 0.316 µM, first compound 0.316 µM
# [18] = second compound 0.316 µM, first compound 1 µM
# [19] = second compound 1 µM, first compound 0.00316 µM
# [20] = second compound 1 µM, first compound 0.01 µM
# [21] = second compound 1 µM, first compound 0.0316 µM
# [22] = second compound 1 µM, first compound 0.1 µM
# [23] = second compound 1 µM, first compound 0.316 µM
# [24] = second compound 1 µM, first compound 1 µM
# 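Further: compound exposure lasted seven days before the viability read.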
# 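Wherever viability, T/C is given: spheroids also contain HUVEC endothelial cells and mesenchymal stem cells as stroma.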
smiles,measurement,setting,value
C=CC(=O)N1CCN(c2nc(OCC3CCCN3C)nc3c(F)c(-c4nc(N)cc(C)c4C(F)(F)F)c(Cl)cc23)C(C)C1 (stereo unspecified) + CCn1c(-c2cccnc2C(C)OC)c2c3cc(ccc31)N1CCOC(CC(NC(=O)C(C(C)C)N(C)C(=O)C3(F)CCN(C(=O)C#CC(C)(C)N(C)C)CC3)C(=O)N3CCCC(N3)C(=O)OCC(C)(C)C2)C1,IC50,second compound 0.000949 µM,> 1000 nM
same,IC50,second compound 0.003 µM,> 1000 nM
same,IC50,second compound 0.00949 µM,> 1000 nM
same,IC50,second compound 0.03 µM,> 1000 nM
same,IC50,second compound 0.0949 µM,> 1000 nM
same,IC50,second compound 0.3 µM,> 1000 nM
same,"viability, T/C","second compound 0.000949 µM, first compound 0.00316 µM",100%
same,"viability, T/C","second compound 0.000949 µM, first compound 0.01 µM",104%
same,"viability, T/C","second compound 0.000949 µM, first compound 0.0316 µM",104%
same,"viability, T/C","second compound 0.000949 µM, first compound 0.1 µM",103%
same,"viability, T/C","second compound 0.000949 µM, first compound 0.316 µM",99.1%
same,"viability, T/C","second compound 0.000949 µM, first compound 1 µM",92.7%
same,"viability, T/C","second compound 0.003 µM, first compound 0.00316 µM",93.2%
same,"viability, T/C","second compound 0.003 µM, first compound 0.01 µM",88.3%
same,"viability, T/C","second compound 0.003 µM, first compound 0.0316 µM",107%
same,"viability, T/C","second compound 0.003 µM, first compound 0.1 µM",113%
same,"viability, T/C","second compound 0.003 µM, first compound 0.316 µM",86.5%
same,"viability, T/C","second compound 0.003 µM, first compound 1 µM",94.7%
same,"viability, T/C","second compound 0.00949 µM, first compound 0.00316 µM",97.7%
same,"viability, T/C","second compound 0.00949 µM, first compound 0.01 µM",111%
same,"viability, T/C","second compound 0.00949 µM, first compound 0.0316 µM",109%
same,"viability, T/C","second compound 0.00949 µM, first compound 0.1 µM",115%
same,"viability, T/C","second compound 0.00949 µM, first compound 0.316 µM",97.9%
same,"viability, T/C","second compound 0.00949 µM, first compound 1 µM",97.7%
same,"viability, T/C","second compound 0.03 µM, first compound 0.00316 µM",99.3%
same,"viability, T/C","second compound 0.03 µM, first compound 0.01 µM",92.8%
same,"viability, T/C","second compound 0.03 µM, first compound 0.0316 µM",97.7%
same,"viability, T/C","second compound 0.03 µM, first compound 0.1 µM",95.8%
same,"viability, T/C","second compound 0.03 µM, first compound 0.316 µM",95.2%
same,"viability, T/C","second compound 0.03 µM, first compound 1 µM",91.9%
same,"viability, T/C","second compound 0.0949 µM, first compound 0.00316 µM",88.5%
same,"viability, T/C","second compound 0.0949 µM, first compound 0.01 µM",86.8%
same,"viability, T/C","second compound 0.0949 µM, first compound 0.0316 µM",104%
same,"viability, T/C","second compound 0.0949 µM, first compound 0.1 µM",96.4%
same,"viability, T/C","second compound 0.0949 µM, first compound 0.316 µM",98.1%
same,"viability, T/C","second compound 0.0949 µM, first compound 1 µM",74.4%
same,"viability, T/C","second compound 0.3 µM, first compound 0.00316 µM",80%
same,"viability, T/C","second compound 0.3 µM, first compound 0.01 µM",78.2%
same,"viability, T/C","second compound 0.3 µM, first compound 0.0316 µM",90.1%
same,"viability, T/C","second compound 0.3 µM, first compound 0.1 µM",69.1%
same,"viability, T/C","second compound 0.3 µM, first compound 0.316 µM",89.4%
same,"viability, T/C","second compound 0.3 µM, first compound 1 µM",79.7%
Nc1ccn(C2OC(CO)C(O)C2(F)F)c(=O)n1 (stereo unspecified) + C=CC(=O)N1CCN(c2nc(OCC3CCCN3C)nc3c(F)c(-c4nc(N)cc(C)c4C(F)(F)F)c(Cl)cc23)C(C)C1,IC50,second compound 0.00316 µM,136 nM
same,IC50,second compound 0.01 µM,225 nM
same,IC50,second compound 0.0316 µM,273 nM
same,IC50,second compound 0.1 µM,144 nM
same,IC50,second compound 0.316 µM,258 nM
same,IC50,second compound 1 µM,233 nM
same,"viability, T/C","second compound 0.00316 µM, first compound 0.00316 µM",94.2%
same,"viability, T/C","second compound 0.00316 µM, first compound 0.01 µM",88.7%
same,"viability, T/C","second compound 0.00316 µM, first compound 0.0316 µM",65%
same,"viability, T/C","second compound 0.00316 µM, first compound 0.1 µM",59%
same,"viability, T/C","second compound 0.00316 µM, first compound 0.316 µM",36.6%
same,"viability, T/C","second compound 0.00316 µM, first compound 1 µM",12.9%
same,"viability, T/C","second compound 0.01 µM, first compound 0.00316 µM",94.2%
same,"viability, T/C","second compound 0.01 µM, first compound 0.01 µM",89%
same,"viability, T/C","second compound 0.01 µM, first compound 0.0316 µM",75.5%
same,"viability, T/C","second compound 0.01 µM, first compound 0.1 µM",73.3%
same,"viability, T/C","second compound 0.01 µM, first compound 0.316 µM",39.8%
same,"viability, T/C","second compound 0.01 µM, first compound 1 µM",15.3%
same,"viability, T/C",[1],93.2%
same,"viability, T/C",[2],93.8%
same,"viability, T/C",[3],72.4%
same,"viability, T/C",[4],67%
same,"viability, T/C",[5],52.7%
same,"viability, T/C",[6],13%
same,"viability, T/C",[7],119%
same,"viability, T/C",[8],88.6%
same,"viability, T/C",[9],72.4%
same,"viability, T/C",[10],50.5%
same,"viability, T/C",[11],51.5%
same,"viability, T/C",[12],11.9%
same,"viability, T/C",[13],103%
same,"viability, T/C",[14],93.4%
same,"viability, T/C",[15],77.1%
same,"viability, T/C",[16],70.1%
same,"viability, T/C",[17],49.6%
same,"viability, T/C",[18],11.7%
same,"viability, T/C",[19],106%
same,"viability, T/C",[20],100%
same,"viability, T/C",[21],74.4%
same,"viability, T/C",[22],63%
same,"viability, T/C",[23],54.8%
same,"viability, T/C",[24],13%
C=CC(=O)N1CCN(c2nc(OCC3CCCN3C)nc3c(F)c(-c4nc(N)cc(C)c4C(F)(F)F)c(Cl)cc23)C(C)C1 (stereo unspecified) + C#Cc1c(F)ccc2cc(O)cc(-c3ncc4c(N5CC6CCC(C5)N6)nc(OCC56CCCN5CC(F)C6)nc4c3F)c12,IC50,second compound 0.0316 µM,> 1000 nM
same,IC50,second compound 0.1 µM,> 1000 nM
same,IC50,second compound 0.316 µM,> 1000 nM
same,IC50,second compound 1 µM,> 1000 nM
same,IC50,second compound 3.16 µM,< 3.16 nM
same,IC50,second compound 10 µM,< 3.16 nM
same,"viability, T/C",[1],61.3%
same,"viability, T/C",[2],63.1%
same,"viability, T/C",[3],74.1%
same,"viability, T/C",[4],57.2%
same,"viability, T/C",[5],55.6%
same,"viability, T/C",[6],71.8%
same,"viability, T/C",[7],55.9%
same,"viability, T/C",[8],64.8%
same,"viability, T/C",[9],58.7%
same,"viability, T/C",[10],48.8%
same,"viability, T/C",[11],56.6%
same,"viability, T/C",[12],61.8%
same,"viability, T/C",[13],53.2%
same,"viability, T/C",[14],56.8%
same,"viability, T/C",[15],58.5%
same,"viability, T/C",[16],54.8%
same,"viability, T/C",[17],52.8%
same,"viability, T/C",[18],52.1%
same,"viability, T/C",[19],48%
same,"viability, T/C",[20],72.6%
same,"viability, T/C",[21],47.1%
same,"viability, T/C",[22],60.7%
same,"viability, T/C",[23],53.2%
same,"viability, T/C",[24],59.2%
same,"viability, T/C","second compound 3.16 µM, first compound 0.00316 µM",42.4%
same,"viability, T/C","second compound 3.16 µM, first compound 0.01 µM",52.1%
same,"viability, T/C","second compound 3.16 µM, first compound 0.0316 µM",54.8%
same,"viability, T/C","second compound 3.16 µM, first compound 0.1 µM",56.9%
same,"viability, T/C","second compound 3.16 µM, first compound 0.316 µM",50.6%
same,"viability, T/C","second compound 3.16 µM, first compound 1 µM",47.2%
same,"viability, T/C","second compound 10 µM, first compound 0.00316 µM",40%
same,"viability, T/C","second compound 10 µM, first compound 0.01 µM",56.9%
same,"viability, T/C","second compound 10 µM, first compound 0.0316 µM",38.3%
same,"viability, T/C","second compound 10 µM, first compound 0.1 µM",43.6%
same,"viability, T/C","second compound 10 µM, first compound 0.316 µM",39.3%
same,"viability, T/C","second compound 10 µM, first compound 1 µM",29.8%
